According to patent publication US20220217972A1, “Methods for cryopreservation of sub-millimeter and millimeter scale biological materials” (Regents of the University of Minnesota, priority 2021, published 2022):

Columns and labels:
[1] = tested on: Drosophila melanogaster embryos; settings: 13 weight percent EG in cryobuffer; shrink at 3 min, swelled back at 25 min; correct stage, properly permeabilized
Experimental: (§1) CPA loading and dehydration. Right after permeabilization, a brush was used to break up clumps into individual embryos floating as a monolayer with minimal overlap (FIG. 2B). […] The embryos should remain floating in order to maintain access to oxygen. After 3 min, “wrinkles” on the embryo surface were observed under a dissecting microscope, indicating volumetric shrinkage (i.e., losing water) in response to higher external osmolarity (FIG. 2C). The percentage of embryos that shrunk was recorded. The 13 weight percent EG petri dish was then placed in a humid chamber. At 25 min, embryos were inspected under a dissecting microscope to confirm that they swelled back to their original shape, indicating EG had entered the embryos. The percentage of embryos that swelled back was recorded.

[2] = tested on: Drosophila melanogaster embryos; assay: Post cryopreservation survival (hatch rate and adult rate) of embryos; format: in vivo; settings: strain M2; for post cryopreservation survival: replacing sorbitol as sugar in dehydration CPA
Experimental: Step 1. Embryo collection and staging. On day 1, 700-1200 flies at the age of 1-4 days old were used to collect embryos at room temperature. Usually 4 bottles of flies were used, 8 or more bottles were used if needed. Flies were placed in an empty Drosophila bottle covered with a mesh cloth as a cap (FIG. 2A). Embryos were collected in a 1 hour period on a grape juice plate smeared with yeast paste. The first hour collection served as an egg clean-up procedure for the female flies and were abandoned. Disturbance of flies was minimized during embryo collection. Grape juice plates with collected embryos were labeled with the end time point of collection, for instance, 3 pm was used to label the collection from 2 pm to 3 pm. Embryos were placed in a temperature incubator at 20.1±0.05° C. (Heratherm purchased from Thermo Scientific) until reaching the desired stage for cryopreservation. 20° C. was selected so that optimal embryo age for cryopreservation will be achieved during a normal work hour on the following day. In this work, embryo collection occurred in the afternoon and usually 2-4 collections were performed.
Step 2. Dechorionation and permeabilization. On day 2, embryos were washed off from the grape juice plate into a nylon mesh basket and dechorionated in 50% bleach for 2-4 minutes. After rinsing with running tap water for 1-2 minutes to remove excess bleach, embryos along with the mesh basket were briefly blotted on paper towel and placed in the cryobuffer (20 mM NaCl, 2.7 mM KCl, 10 mM Na2HPO4, 1.8 mM KH2PO4, 4 mM MgCl2, 13 mM MgSO4, 60 mM Glycine, 60 mM Glutamic acid and 5 mM Malic acid, pH6.8, sterilized by filtration) in a 35 mm petri dish. Embryos were examined under a dissecting microscope to confirm the removal of chorions. In addition, the gut morphology was evaluated to verify the embryo stage (FIG. 2B).
Before permeabilization, ˜4 ml isopropanol, mixture of D-limonene and heptane (4:1 v/v), and heptane alone were added to three separate 35 mm glass petri dishes in a fume hood. […]
Step 3. […] The percentage of embryos that shrunk was recorded. […]

[3] = tested on: Drosophila melanogaster embryos; settings: permeable CPAs compared under the same weight concentration; strain M2
Experimental: as §1
Next, the mesh basket was blotted and placed in 39 weight percent EG+9 weight percent sorbitol solution prepared in cryobuffer on ice (i.e., ˜4° C.) for 9 min This step dehydrates the embryos (i.e., water loss) thereby elevating the intra-embryonic EG concentration to favor vitrification and avoidance of devitrification during the rewarming processes. In general, 5-6 ml dehydration CPA was used in a 35 mm petri dish.
At this point, intra-embryonic CPA concentration was elevated through dehydration by placing the embryos in a high concentration CPA (i.e., ˜39 weight percent) at 4° C. […]

Compound | embryos that shrink and swell [1] | survival post cryopreservation ([2]; permeable CPAs compared under the same weight concentration) | CPA toxicity (post dehydration survival) [3] | post cryopreservation survival [2]
OCCO [EG, ethylene glycol] | > 90% | highest survival post cryopreservation | least CPA toxicity | 
C[S+](C)[O-] [DMSO, dimethyl sulfoxide] |  |  | highest CPA toxicity | 
OC[C@H]1O[C@H](O[C@H]2O[C@H](CO)[C@@H](O)[C@H](O)[C@H]2O)[C@H](O)[C@@H](O)[C@@H]1O [trehalose] |  |  |  | did not affect post cryopreservation survival
OC[C@H]1O[C@@](CO)(O[C@H]2O[C@H](CO)[C@@H](O)[C@H](O)[C@H]2O)[C@@H](O)[C@@H]1O [sucrose] |  |  |  | did not affect post cryopreservation survival
